Source: patent publication US7763610B2, “Carboxylic acid derived benzoxazines as agents for the treatment of respiratory diseases” (Ono Pharmaceutical Co., Ltd., priority 2003, dated 2010)
pIC50: −log10 of the molar value.

Target: T1, cysLT2 receptor (Homo sapiens, UniProt Q9NS75)
T1 construct: expressed in transfected cells; host or cells: HEK293
T1 sequence (Q9NS75 1-346): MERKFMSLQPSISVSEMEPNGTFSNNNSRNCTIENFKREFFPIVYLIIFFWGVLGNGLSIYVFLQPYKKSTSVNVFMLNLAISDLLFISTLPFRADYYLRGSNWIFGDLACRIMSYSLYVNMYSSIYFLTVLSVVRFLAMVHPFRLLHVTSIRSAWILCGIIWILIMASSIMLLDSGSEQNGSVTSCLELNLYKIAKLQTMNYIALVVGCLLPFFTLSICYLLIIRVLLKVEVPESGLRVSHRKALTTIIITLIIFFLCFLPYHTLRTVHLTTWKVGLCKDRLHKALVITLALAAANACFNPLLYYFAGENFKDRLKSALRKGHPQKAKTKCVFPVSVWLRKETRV
Assay: Effect on LTD4-induced increase of intracellular calcium
Assay type: cell-based
Conditions: HEK293 expression cells of cysLT2 receptor, 100 nM LTD4, compound 180 seconds before stimulation; read-out: IC50 value (50% inhibitory concentration, LTD4-induced intracellular calcium influx)
Method: Expression cells of cysLT2 receptor (HEK293) were seeded in a 96-well plate each containing 1×10^5 cells. The cells were cultured for 24 hours in a 5% CO2 at 37° C. using DMEM (Dulbecco's Modified Eagle Medium). The cells were incubated in 7.5 μM Fura2-AM, 20 mM HEPES (2-[4-(2-hydroxyethyl)-1-piperazinyl]ethanesulfonic acid) and 2.5 mM probenecid for approximately 30 minutes at 37° C. The cells with uptake of Fura2-AM were once washed with assay buffer (Hank's buffer containing 20 mM HEPES) and intracellular calcium influx induced by LTD4 was measured by FDSS2000 (Hamamatsu Photonics K.K.). The compound of the present invention was administered 180 seconds before LTD4 stimulation, and the reaction induced by 100 nM LTD4 was measured in time course for 90 seconds. The effect of the compound of the present invention was evaluated by maximum fluorescence intensity, and 50% inhibitory concentration (IC50) was calculated on each compound.

| pIC50 | SMILES |
| --- | --- |
| 7.00 | O=C(O)CCC(=O)N1CC(c2nnn[nH]2)Oc2c(NC(=O)c3ccc(OCCCCc4ccccc4)cc3)cccc21 (centres unmarked) [Example 12] |
| 7.52 | O=C(O)CCCN1CC(C(=O)O)Oc2c(OCc3ccc(OCCCCc4ccccc4)cc3)cccc21 (centres unmarked) [Example 25] |
